Laboratory results as given in patent US8741951B2, “Non-steroidal compounds for androgen receptor modulation” (CNR—Consiglio Nazionale delle Ricerche, priority 2009, dated 2014).
Entries after “also recorded” stand apart in the source; their conditions may differ.

Assays:
LNCaP cells = assay: SRB in vitro chemosensitivity assay, LNCaP; format: cell-based
Experimental: (§1) The cell lines were maintained as a monolayer at 37° C. and subcultured weekly. Culture medium was composed of RPMI 1640 supplemented with 10% fetal calf serum and 1% glutamine (Mascia Brunelli s.p.a., Milan, Italy). Cells were used in the exponential growth phase in all the experiments.
(§2) Compounds were dissolved in acetone or DMSO (AITES) ([…]) and stored at −20° C. The cell culture containing acetone at the highest concentration was used as the control.
(§3) Sulforhodamine B (SRB) assay was used according to the method by Skehan et al. (JNCI, 1990). Briefly, cells were collected by trypsinization, counted and plated at a density of 5,000 cells/well in 96-well flat-bottomed microtiter plates (100 μl of cell suspension/well). In the chemosensitivity assay, experiments were run in octuplicate, and each experiment was repeated three times. The optical density (OD) of cells was determined at a wavelength of 490 nm by a colorimetric plate reader.
(§4) If ODtreated is above ODzero, treatment has induced a cytostatic effect, whereas if ODtreated is below ODzero, cell killing has occurred. The ODzero depicts the cell number at the moment of drug addition, the ODcontrol reflects the cell number in untreated wells and the ODtreated reflects the cell number in treated wells on the day of the assay.
(§5) FIGS. 2-11 show the cytotoxic activity of the derivative compounds of the invention on the LNCaP and LNCaP-AR cell lines. The authors examined the antitumour activity of the compounds for which the synthesis is described above, in the hormone-sensitive prostate cancer cell line LNCaP and in its derivative cell line LNCaP-AR, expressing high level of AR and with hormone refractory prostate cancer (HRPC) features. The novel compounds were tested at the increasing concentrations of […], 0.2, 2.0, and 20.0 μM. The highest dose used was chosen on the basis of the clinically achievable peak plasma concentration reported in the literature for bicalutamide (Cockshott I D. Clin Pharmacokinet. 2004; 43(13): 855-78). After 144-hr exposure time the cytotoxic effect of the molecules was calculated according to the method of Monks et al. (Monks A, Scudiero D, Skehan P, et al. Feasibility of a high-flux anticancer drug screen using a diverse panel of cultured human tumor cell lines. J Natl Cancer Inst. 1991; 83: 757-66.)

LNCaP-AR cells = assay: SRB in vitro chemosensitivity assay, LNCaP-AR; format: cell-based
Experimental: as §1, §2, §3, §4, §5

DU145 cell line = assay: SRB cytotoxicity, DU145; format: cell-based, human; details: DU145 (no AR), 144 h, up to 20 μM
Experimental: FIGS. 16-25: cytotoxic effect of compounds (R)-XXIII-2, (R)-XXIII-3, (R)-XXIII-4, (R)-XXIII-5, (R)-XXIII-6, (R)-XXIII-7, (R)-XXIII-8, (R)-XXIII-9, (R)-XXIII-10, (R)-XXIV-9 on PC-3 and DU-145 cell lines at different concentration (0.02, 0.2, 2, 20 μM) after 144 h exposure. On the x-axis is reported the concentration, while on the y-axis is reported the inhibition of the net growth (% net growth).
as §3, §4

[1] = test system: human CW22-RV1 prostate carcinoma xenograft; assay: In vivo antitumor activity, CW22-RV1 xenograft s.c. in nude mice
Experimental: CW-22Rv1, a human prostate carcinoma epithelial cell line were purchased from ATCC.
In vivo antitumor activity experiments with the compound (R)-XXIII-6 were carried out using female athymic Swiss nude mice 8 to 10 weeks of age (Charles River, Calco, Italy). Mice were maintained in laminar flow rooms, keeping temperature and humidity constant. Mice had free access to food and water. Experiments were approved by the Ethics Committee for Animal Experimentation of the Istituto Nazionale Tumori (Milan, Italy).
Human CW22-RV1 cells, a human prostate carcinoma epithelial cell line, derived from a xenograft that was serially propagated in mice after castration-induced regression and relapse of the parental, androgen-dependent CWR22 xenograft, were used for in vivo experiments. The prostate carcinoma cell line were inoculated by subcutaneous injection (s.c.) in the right flank of nude mice, at day 0. Treatment started at day 3 when tumor weights were around 60 mg.
The efficacy of the drug treatment was assessed as: (a) TWI % in treated versus control mice, calculated as TWI=100−(mean TW treated/mean TW control×100).
The toxicity of the drug treatment was assessed as: (a) BWL calculated as BWL=100−(mean BWdayx/mean BWday1×100), where day 1 is the first day of treatment and day x is any day after (mice were weighed twice/week throughout the experimental frame and in the table 3 the maximum BWL value was reported); and (b) lethal toxicity, i.e., any death in treated groups occurring before any control death (mice were inspected daily for mortality).

N#Cc1ccc(NC(=O)[C@](O)(Cc2cccs2)CS(=O)(=O)c2ccc(F)cc2)cc1C(F)(F)F [(R)-XXIII-6]
GI50 (LNCaP cells; Homo sapiens, LNCaP, 144 h): 8.9 µM | LC50 (LNCaP cells; LNCaP cells, 144 h exposure, up to 20 μM): n.r. | cytotoxic effect (cytostatic / cytocidal), in words (LNCaP cells; LNCaP, 144 h, up to 20 μM): suppress completely the cell growth | GI50 (LNCaP-AR cells; Homo sapiens, LNCaP/AR, 144 h): 9.8 µM | LC50 (LNCaP-AR cells; LNCaP-AR cells, 144 h exposure, up to 20 μM): n.r. | cytotoxic effect (cytostatic / cytocidal), in words (LNCaP-AR cells; LNCaP-AR, 144 h, up to 20 μM): suppress completely the cell growth | cytotoxic activity, in words (DU145 cell line): negligible cytotoxic activity | Tox/Tot (deaths in treated mice before any control death) ([1]; 100 mg/Kg p.o.): 0/6 | day of Max TWI % (day after tumor inoculum) ([1]; 100 mg/Kg p.o.): 23 days | Max TWI % ([1]; 100 mg/Kg p.o., (qdx5/wx2w) × 2 cycles): 45% | Max BWL (maximum body weight loss in percentage) ([1]; 100 mg/Kg p.o., during drug treatment): 2% | tolerability, in words ([1]; 100 mg/kg p.o.): generally well tolerated, with no signs of acute or delayed toxicity | antitumor activity / tumor weight, in words ([1]; 100 mg/kg p.o., versus untreated mice): significant reduction in tumor weight; also recorded: effective in slowing tumor growth
